Measured values taken from US20260217697A1, “COMPOUNDS COMPRISING HETEROARYL RINGS AND COMPOSITIONS AND METHODS THEREOF” (lonGen Therapeutics Co., Ltd., priority 2022, published 2026).

These molecules were tested against T1, hTRPV3 (Homo sapiens, UniProt Q8NET8) (assay: Whole-cell patch-clamp recording of hTRPV3 current in transfected HEK293T cells (2-APB induced)). Conditions: current induced by 300 μM 2-APB, compounds tested up to 10 μM, room temperature.
T1 construct: The commercially available plasmid with the full-length cDNA of hTRPV3 (791 aa) (NM_001258205.2); host or cells: HEK293T
T1 sequence (Q8NET8 1-791 isoform Q8NET8-2): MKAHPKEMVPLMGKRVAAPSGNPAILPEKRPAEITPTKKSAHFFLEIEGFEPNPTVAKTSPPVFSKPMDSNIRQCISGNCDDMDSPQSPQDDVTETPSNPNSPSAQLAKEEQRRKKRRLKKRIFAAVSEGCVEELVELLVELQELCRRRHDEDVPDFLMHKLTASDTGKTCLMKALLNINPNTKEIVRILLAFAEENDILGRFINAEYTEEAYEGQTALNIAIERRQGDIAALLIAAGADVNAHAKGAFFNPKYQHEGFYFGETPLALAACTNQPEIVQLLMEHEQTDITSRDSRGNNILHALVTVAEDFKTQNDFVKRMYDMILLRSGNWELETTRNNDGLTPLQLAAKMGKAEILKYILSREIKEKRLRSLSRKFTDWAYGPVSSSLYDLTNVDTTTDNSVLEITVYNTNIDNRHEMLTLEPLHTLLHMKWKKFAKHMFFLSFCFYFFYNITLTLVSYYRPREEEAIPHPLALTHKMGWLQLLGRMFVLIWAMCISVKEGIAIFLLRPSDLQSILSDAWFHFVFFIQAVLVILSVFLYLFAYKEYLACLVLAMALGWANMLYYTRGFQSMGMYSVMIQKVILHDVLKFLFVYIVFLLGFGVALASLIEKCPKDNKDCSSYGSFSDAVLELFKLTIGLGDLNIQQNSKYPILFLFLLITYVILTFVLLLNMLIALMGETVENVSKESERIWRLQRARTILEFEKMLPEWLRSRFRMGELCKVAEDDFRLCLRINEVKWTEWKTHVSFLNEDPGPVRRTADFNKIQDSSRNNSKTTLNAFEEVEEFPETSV
Format: cell-based
Outline: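 IC50 comes from Hill fits, 0–100% bounds, of percent block of 2-APB-induced current, with compounds perfused at up to 10 μM. Currents elicited at +80/−80 mV (400-ms steps, 2-s interval, 0 mV hold), room temperature, symmetric NaCl/EDTA/HEPES pH 7.4 solutions. Cells: hTRPV3-transfected HEK293T, used 18 h after transfection.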

| IC50 [µM] | SMILES |
| --- | --- |
| 0.1 to 1 | COc1ncnc(OC)c1C(=O)Nc1nc2c(s1)C1(COC1)Oc1cc(C3CC3)ccc1-2 [compound 138, N-(7-cyclopropylspiro[chromeno[4,3-d]thiazole-4,3′-oxetan]-2-yl)-4,6-dimethoxypyrimidine-5-carboxamide] |
| 0.1 to 1 | CCCCCCC1(C)Oc2cc(C(F)(F)F)ccc2-c2nc(NC(=O)c3c(OC)ncnc3OC)sc21 (stereo not shown) [compound 41, N-(4-hexyl-4-methyl-7-(trifluoromethyl)-4H-chromeno[4,3-d]thiazol-2-yl)-4,6-dimethoxypyrimidine-5-carboxamide] |
| < 0.1 | COc1ncnc(OC)c1C(=O)Nc1nc2c(s1)C1(CN(C3CCC3)C1)Oc1cc(C(F)(F)F)ccc1-2 [compound 159, N-(1-cyclobutyl-7′-(trifluoromethyl)spiro[azetidine-3,4′-chromeno[4,3-d]thiazol]-2′-yl)-4,6-dimethoxypyrimidine-5-carboxamide] |
| 0.1 to 1 | COc1ncnc(OC)c1C(=O)Nc1nc2c(s1)C1(CCN(C(=O)C3CC3)CC1)Oc1cc(C(F)(F)F)ccc1-2 [compound 69, N-(1′-(cyclopropanecarbonyl)-7-(trifluoromethyl)spiro[chromeno[4,3-d]thiazole-4,4′-piperidin]-2-yl)-4,6-dimethoxypyrimidine-5-carboxamide] |
| 0.1 to 1 | COC(=O)N1CC2(C1)Oc1cc(C(F)(F)F)ccc1-c1nc(NC(=O)c3c(OC)ncnc3OC)sc12 [compound 92, methyl 2′-(4,6-dimethoxypyrimidine-5-carboxamido)-7′-(trifluoromethyl)spiro[azetidine-3,4′-chromeno[4,3-d]thiazole]-1-carboxylate] |
| < 0.1 | COc1ncnc(OC)c1C(=O)Nc1nc2c(s1)C1(CN(C3CC3)C1)Oc1cc(C(F)(F)F)ccc1-2 [compound 149, N-(1-cyclopropyl-7′-(trifluoromethyl)spiro[azetidine-3,4′-chromeno[4,3-d]thiazol]-2′-yl)-4,6-dimethoxypyrimidine-5-carboxamide] |
| 0.1 to 1 | CCC1(CC)Oc2cc(C(F)(F)F)ccc2-c2nc(NC(=O)c3c(OC)ccnc3OC)sc21 [compound 98, N-(4,4-diethyl-7-(trifluoromethyl)-4H-chromeno[4,3-d]thiazol-2-yl)-2,4-dimethoxynicotinamide] |
| 0.1 to 1 | COc1ncnc(OC)c1C(=O)Nc1nc2c(s1)C1(CCC(C(=O)N(C)Cc3ccccc3)CC1)Oc1cc(C(F)(F)F)ccc1-2 (stereo not shown) [compound 126, N-benzyl-2-(4,6-dimethoxypyrimidine-5-carboxamido)-N-methyl-7-(trifluoromethyl)spiro[chromeno[4,3-d]thiazole-4,1′-cyclohexane]-4′-carboxamide] |
| 0.1 to 1 | COc1ncnc(OC)c1C(=O)Nc1nc2c(s1)C1(COC1)Oc1cc(C(F)(F)F)ccc1-2 [compound 65, 4,6-dimethoxy-N-(7-(trifluoromethyl)spiro[chromeno[4,3-d]thiazole-4,3′-oxetan]-2-yl)pyrimidine-5-carboxamide] |
| 0.1 to 1 | COc1ncnc(OC)c1C(=O)NC1=NC2c3ccc(C(F)(F)F)cc3OC3(CCC3)C2S1 (stereo not shown) [compound 19, 4,6-dimethoxy-N-(7-(trifluoromethyl)-3a,9b-dihydrospiro[chromeno[4,3-d]thiazole-4,1′-cyclobutan]-2-yl)pyrimidine-5-carboxamide] |
| 0.1 to 1 | COc1ncnc(OC)c1C(=O)Nc1nc2c(s1)C1(CCC(NC(=O)OC(C)(C)C)CC1)Oc1cc(C(F)(F)F)ccc1-2 (stereo not shown) [compound 109] |
| 0.1 to 1 | CCC1(CC)Oc2cc(C#N)ccc2-c2nc(NC(=O)c3c(OC)ncnc3OC)sc21 [compound 50, N-(7-cyano-4,4-diethyl-4H-chromeno[4,3-d]thiazol-2-yl)-4,6-dimethoxypyrimidine-5-carboxamide] |
| 1 to 10 | COc1ncnc(OC)c1C(=O)Nc1nc2c(s1)-c1ccc(C(F)(F)F)cc1OC21CCS(=O)(=O)CC1 [compound 141, N-(1′,1′-dioxido-7-(trifluoromethyl)-2′,3′,5′,6′-tetrahydrospiro[chromeno[3,4-d]thiazole-4,4′-thiopyran]-2-yl)-4,6-dimethoxypyrimidine-5-carboxamide] |
| 0.1 to 1 | COc1ncnc(OC)c1C(=O)Nc1nc2c(s1)C1(CC(C)CC(C)C1)Oc1cc(C(F)(F)F)ccc1-2 (stereo not shown) [compound 37, N-(3′,5′-dimethyl-7-(trifluoromethyl)spiro[chromeno[4,3-d]thiazole-4,1′-cyclohexan]-2-yl)-4,6-dimethoxypyrimidine-5-carboxamide] |
| 1 to 10 | COc1ncnc(OCCN(C)C)c1C(=O)Nc1nc2c(s1)C1(COC1)Oc1cc(C(F)(F)F)ccc1-2 [compound 151, 4-(2-(dimethylamino)ethoxy)-6-methoxy-N-(7-(trifluoromethyl)spiro[chromeno[4,3-d]thiazole-4,3′-oxetan]-2-yl)pyrimidine-5-carboxamide] |
| ≥ 10 | CCC1(CC)Oc2cc(C(F)(F)F)ccc2-c2nc(NC(=O)c3c(OC)cccc3OC)sc21 [compound 142, N-(4,4-diethyl-7-(trifluoromethyl)-4H-chromeno[4,3-d]thiazol-2-yl)-2,6-dimethoxybenzamide] |

More lines, now with the values behind:

| SMILES | IC50 [µM] |
| --- | --- |
| COc1ncnc(OC)c1C(=O)Nc1nc2c(s1)COc1ccc(Cl)cc1-2 [compound 86, N-(8-chloro-4H-chromeno[4,3-d]thiazol-2-yl)-4,6-dimethoxypyrimidine-5-carboxamide] | 1 to 10 |
| CCC1(CC)Oc2cc(N3CCOCC3)ccc2-c2nc(NC(=O)c3c(OC)ncnc3OC)sc21 [compound 58, N-(4,4-diethyl-7-morpholino-4H-chromeno[4,3-d]thiazol-2-yl)-4,6-dimethoxypyrimidine-5-carboxamide] | 1 to 10 |
| CCC1(CC)Oc2cc(C(F)(F)F)ccc2-c2nc(NC(=O)c3c(C)n[nH]c3C)sc21 [compound 93, N-(4,4-diethyl-7-(trifluoromethyl)-4H-chromeno[4,3-d]thiazol-2-yl)-3,5-dimethyl-1H-pyrazole-4-carboxamide] | 1 to 10 |
| COc1ncnc(OC)c1C(=O)Nc1nc2c(s1)C1(CCN(CC(C)C)CC1)Oc1cc(C(F)(F)F)ccc1-2 [compound 155, N-(1′-isobutyl-7-(trifluoromethyl)spiro[chromeno[4,3-d]thiazole-4,4′-piperidin]-2-yl)-4,6-dimethoxypyrimidine-5-carboxamide] | < 0.1 |
| COc1ncnc(OC)c1C(=O)Nc1nc2c(s1)C1(CCN(C(C)C)CC1)Oc1cc(C(F)(F)F)ccc1-2 [compound 152, N-(1′-isopropyl-7-(trifluoromethyl)spiro[chromeno[4,3-d]thiazole-4,4′-piperidin]-2-yl)-4,6-dimethoxypyrimidine-5-carboxamide] | 0.1 to 1 |
| CCC1(CC)Oc2cc(C(F)(F)F)ccc2-c2nc(NC(=O)c3cc(OC)nnc3OC)sc21 [compound 91, N-(4,4-diethyl-7-(trifluoromethyl)-4H-chromeno[4,3-d]thiazol-2-yl)-3,6-dimethoxypyridazine-4-carboxamide] | ≥ 10 |
| COc1ncnc(OC)c1C(=O)Nc1nc2c(s1)CCCc1ccccc1-2 [compound 4, N-(5,6-dihydro-4H-benzo[6,7]cyclohepta[1,2-d]thiazol-2-yl)-4,6-dimethoxypyrimidine-5-carboxamide] | ≥ 10 |
| COc1ncnc(OC)c1C(=O)Nc1nc2c(s1)CCc1ccc(Cl)cc1-2 [compound 3, N-(8-chloro-4,5-dihydronaphtho[1,2-d]thiazol-2-yl)-4,6-dimethoxypyrimidine-5-carboxamide] | 1 to 10 |
| CCC1(CC)Oc2cc(C(F)(F)F)ccc2-c2nc(NC(=O)c3c(Cl)ncnc3Cl)sc21 [compound 111, 4,6-dichloro-N-(4,4-diethyl-7-(trifluoromethyl)-4H-chromeno[4,3-d]thiazol-2-yl)pyrimidine-5-carboxamide] | 1 to 10 |
| CCC1(CC)Oc2cc(C(F)(F)F)ccc2-c2nc(NC(=O)c3cc(Cl)nnc3OC)sc21 [compound 90, 6-chloro-N-(4,4-diethyl-7-(trifluoromethyl)-4H-chromeno[4,3-d]thiazol-2-yl)-3-methoxypyridazine-4-carboxamide] | 1 to 10 |
| COc1ncnc(OC)c1C(=O)Nc1nc2c(s1)COc1ccc(C)cc1-2 [compound 16, 4,6-dimethoxy-N-(8-methyl-4H-chromeno[4,3-d]thiazol-2-yl)pyrimidine-5-carboxamide] | ≥ 10 |
| CCC1(CC)Oc2cc(C(F)(F)F)ccc2-c2nc(NC(=O)c3cc(OC)nnc3Cl)sc21 [compound 89, 3-chloro-N-(4,4-diethyl-7-(trifluoromethyl)-4H-chromeno[4,3-d]thiazol-2-yl)-6-methoxypyridazine-4-carboxamide] | ≥ 10 |
